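Each compound was tested at five concentrations against cells in 96-well plates for 48 hours. Here, GI50 denotes the concentration required for 50% inhibition of growth.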 The source made the active and inactive calls. No stated cut-off is given here; in the data, active = GI50 up to about 1.1 µM and inactive = higher.
What was measured:
Assay in all cases: NCI tumour cell line growth inhibition, 48 h
RPMI-8226 = test system: RPMI-8226
NCI-H460 = test system: NCI-H460
SN12C = test system: SN12C
SF-295 = test system: SF-295
HT-29 = test system: HT-29
RXF 393 = test system: RXF 393
COLO 205 = test system: COLO 205
DLD-1 = test system: DLD-1
HOP-18 = test system: HOP-18
HCT-116 = test system: HCT-116
IGROV-1 = test system: IGROV-1
CCRF-CEM = test system: CCRF-CEM
HCC 2998 = test system: HCC 2998
ACHN = test system: ACHN
KM12 = test system: KM12
SK-MEL-28 = test system: SK-MEL-28
UACC-62 = test system: UACC-62
OVCAR-3 = test system: OVCAR-3
OVCAR-8 = test system: OVCAR-8
OVCAR-5 = test system: OVCAR-5
SR = test system: SR
U-251 = test system: U-251
OVCAR-4 = test system: OVCAR-4
M19-MEL = test system: M19-MEL
TK-10 = test system: TK-10
HOP-62 = test system: HOP-62
SK-MEL-5 = test system: SK-MEL-5
M14 = test system: M14
SK-OV-3 = test system: SK-OV-3
SK-MEL-2 = test system: SK-MEL-2
DMS-273 = test system: DMS-273
KM-20L2 = test system: KM-20L2
HCT-15 = test system: HCT-15
SF-539 = test system: SF-539
CAKI-1 = test system: CAKI-1
NCI-H23 = test system: NCI-H23
RXF 631 = test system: RXF 631
UO-31 = test system: UO-31
DMS-114 = test system: DMS-114
UACC-257 = test system: UACC-257
SNB-78 = test system: SNB-78
K562 = test system: K562
EKVX = test system: EKVX
NCI-H226 = test system: NCI-H226
SNB-75 = test system: SNB-75
HL-60 = test system: HL-60
SW-620 = test system: SW-620
LOX IMVI = test system: LOX IMVI
LXFL 529 = test system: LXFL 529
A549 = test system: A549
SNB-19 = test system: SNB-19
786-0 = test system: 786-0
SF-268 = test system: SF-268
A498 = test system: A498
MOLT-4 = test system: MOLT-4

Nc1ncnc(NC2C=C(CO)C(O)C2O)c1[N+](=O)[O-] (stereo not given) was tested, and the GI50 (RPMI-8226) was > 100 µM (inactive), the GI50 (NCI-H460) was > 100 µM (inactive) and the GI50 (SN12C) was > 100 µM (inactive). The GI50 (SF-295) was > 100 µM (inactive), the GI50 (HT-29) was > 100 µM (inactive) and the GI50 (RXF 393) was > 100 µM (inactive). The GI50 (COLO 205) was 60.3 µM (inactive), the GI50 (DLD-1) was > 100 µM (inactive) and the GI50 (HOP-18) was > 100 µM (inactive). For the same molecule, the GI50 (HCT-116) was 32.9 µM (inactive), the GI50 (IGROV-1) was > 100 µM (inactive) and the GI50 (CCRF-CEM) was > 100 µM (inactive). The GI50 (HCC 2998) was > 100 µM (inactive), the GI50 (ACHN) was > 100 µM (inactive) and the GI50 (KM12) was > 100 µM (inactive). For the same molecule, the GI50 (SK-MEL-28) was > 100 µM (inactive), the GI50 (UACC-62) was > 100 µM (inactive) and the GI50 (OVCAR-3) was > 100 µM (inactive). The GI50 (OVCAR-8) was > 100 µM (inactive), the GI50 (OVCAR-5) was > 100 µM (inactive) and the GI50 (SR) was > 100 µM (inactive). For the same molecule, the GI50 (U-251) was > 100 µM (inactive), the GI50 (OVCAR-4) was > 100 µM (inactive) and the GI50 (M19-MEL) was > 100 µM (inactive). For the same molecule, the GI50 (TK-10) was > 100 µM (inactive), the GI50 (HOP-62) was > 100 µM (inactive) and the GI50 (SK-MEL-5) was > 100 µM (inactive). The GI50 (M14) was > 100 µM (inactive), the GI50 (SK-OV-3) was > 100 µM (inactive) and the GI50 (SK-MEL-2) was > 100 µM (inactive). For the same molecule, the GI50 (DMS-273) was > 100 µM (inactive), the GI50 (KM-20L2) was > 100 µM (inactive) and the GI50 (HCT-15) was 42.9 µM. The GI50 (SF-539) was > 100 µM (inactive), the GI50 (CAKI-1) was > 100 µM (inactive) and the GI50 (NCI-H23) was > 100 µM (inactive). The GI50 (RXF 631) was > 100 µM (inactive), the GI50 (UO-31) was > 100 µM (inactive) and the GI50 (DMS-114) was > 100 µM (inactive). The GI50 (UACC-257) was > 100 µM (inactive), the GI50 (SNB-78) was > 100 µM (inactive) and the GI50 (K562) was > 100 µM (inactive). For the same molecule, the GI50 (EKVX) was > 100 µM (inactive), the GI50 (NCI-H226) was > 100 µM (inactive) and the GI50 (SNB-75) was > 100 µM (inactive). The GI50 (HL-60) was > 100 µM (inactive), the GI50 (SW-620) was 28.1 µM (inactive) and the GI50 (LOX IMVI) was > 100 µM (inactive). For the same molecule, the GI50 (LXFL 529) was > 100 µM (inactive), the GI50 (A549) was > 100 µM (inactive) and the GI50 (SNB-19) was > 100 µM (inactive). The GI50 (786-0) was > 100 µM (inactive), the GI50 (SF-268) was > 100 µM (inactive) and the GI50 (A498) was > 100 µM (inactive). The GI50 (MOLT-4) was > 100 µM (inactive).
